The values that follow come from a melting point compilation (Tetko et al.; mined from patent text by program, amines drawn as free bases though some values may be those of a salt).

A word on the melting point: it is the temperature of the solid-liquid transition. `CCCn1c(=O)c2[nH]c(CC(C)c3ccc(OCc4ccccc4)cc3)nc2n(CCC)c1=O` (stereo not drawn) had a melting point of 124 to 126 °C. The figure for `Fc1cccc(-c2sc(-c3ccccc3)cc2-c2ccccc2)c1` is 118 to 119 °C; for `CO[C@]1(c2cccc(Sc3ccc4c(ccc(=O)n4C)c3)c2)CCO[C@@H](C)C1` it is 93 to 96 °C.

With `C=CCN1CC(C)N(C(c2ccc(C(=O)N(CC)CC)cc2)c2cccc(O)c2)CC1C` (stereo not drawn), the melting point was in the range of 170 to 171 °C. The compound `COc1ccc(CN(C)CCCCc2ccc(NC(=O)c3cccc4c(=O)c5cccc(N)c5[nH]c34)cc2)cc1OC` yielded a melting point of 250 °C. The figure for `CC(C)OC(=O)C(O)C(CC1CCCCC1)NC(=O)C(Cc1c[nH]cn1)NC(=O)C(CC(=O)N1CCOCC1)Cc1cccc2ccccc12` (mixture of isomers) is 103 to 106 °C. The figure for `CCn1c(C(OCCO)(c2cccc(C(F)(F)F)c2)c2cccc(C(F)(F)F)c2)nc(-c2ccncc2)c1-c1ccc(Cl)cc1` is 222 to 223 °C; for `O=C(O)c1ccc2c(Cl)ccnc2c1` it is greater than 235 °C; for `CN1CCC(c2c[nH]c3ccc(NC(=O)c4ccoc4)nc23)CC1` it is 105 to 108 °C. The figure for `CCS(=O)(=O)c1ccc(C=O)cc1` is 107 to 109 °C. The compound `COc1ccc(-c2nn(C(C)c3oc4ccccc4c(=O)c3-c3cccc(F)c3)c3ncnc(N)c23)cc1F` (stereo not drawn) came in with a melting point of 222 to 224 °C.

`COc1ccc2[nH]c3cc(-c4ccccc4C#N)c4c(c3c2c1)C(=O)NC4=O`: the melting point was in the range of 348 to 350 °C. The figure for `N#CC=C1CCN(c2ccc(N3C[C@H](CNC(=O)C(Cl)(Cl)Cl)OC3=O)cc2F)CC1` is 142 to 144 °C; for `CC(C)COC(=O)CCC12CCC(=O)N1C(=O)CC2` it is 102 to 104 °C; for `O=C(O)Cc1cccc(C(=O)c2ccc(O)cc2)c1` it is 147 to 149 °C. As for `CCOc1ccc(-c2nc(-c3ccc(SC(=O)N(C)C)c(C(=O)OC)c3)cs2)cc1OCC`, the melting point lay within 108 to 109 °C.

For the compound `N#CCNC1(c2ccccc2Cl)C(=O)Nc2ccc(Cl)cc21` (stereo not drawn), the melting point is 240 to 241 °C. The figure for `CCCCCCCCNC(=O)c1c(N)cc(Cl)cc1Cl` is 105 to 109 °C; for `CCCC(c1ccc(C(=O)O)cc1)[Si]1(C)O[Si](C)(C)O[Si](C)(C)O[Si](C)(C)O1` (stereo not drawn) it is 72 to 78 °C; for `CC(=O)NCc1ccc(CN2CCN(c3ccc(NC(C)=O)cc3)CC2)cc1` it is 225 to 226 °C.

`O=[N+]([O-])c1ccc(OC23CC4CC(CC(C4)C2)C3)cc1` displayed a melting point of 132 to 134 °C. With `CC(=O)c1cc(Nc2cc(C)nc(N)n2)cc(C(C)=O)c1`, the melting point is 240 to 241 °C. In turn, `N#Cc1c2ccccc2c(-c2ccc(O)cc2)c2c1sc1ccccc12` came in with a melting point of 307 to 309 °C. The figure for `CCCCOC(=O)c1c(Cn2ccnc2)nc2cc(OC)c(OC)cc2c1-c1ccc(OC)c(OC)c1` is 140 to 141 °C. With `C=C(c1ccc(OC)c(N)c1)c1ccc(OC)c(OCC)c1`, the melting point lay within 91 to 93 °C.

Compound `CCOCCOc1ccc(OCc2ccccc2)cc1` displayed a melting point of 35 to 37 °C.

With `CC(OC(N)=O)c1cc2c3ccccc3n(C)c(=O)n2n1` (stereo not drawn), the melting point lay within 216 to 221 °C. The figure for `CC1(C)CCN(c2cccc(-c3cnc4[nH]cc(C(=O)C(C)(C)C)c4n3)c2)C1` is 233 to 235 °C; for `CCCCCCCCCCC(C)OS(=O)(=O)NC(=O)Nc1c(C(C)C)cccc1C(C)C` (stereo not drawn) it is 110 to 112 °C.

Turning to `O=C(c1cc(-c2ccccc2)c(=O)n2c1-c1ccccc1CN2)N1CCOCC1`, the melting point lay within 254 to 257 °C. The figure for `CN1C(=O)N(c2c(Cl)cccc2Cl)Cc2cnc(NCCc3ccc(N)cc3)nc21` is 174 to 175 °C. The figure for `CNc1nc2ccc(CCc3nc4cc(C)ccn4c3C)cc2o1` is 203 to 205 °C. The figure for `O=S1(=O)CCN(Cc2ccc(Br)cn2)CC1` is 129 to 131 °C; for `CCCCOc1c(NCc2ccc(C#N)cc2Cl)c(=O)c1=O` it is 148 to 149 °C; for `CC=CCn1c(C)c(C)c2cnnc(CCc3ccccc3)c21` it is 98 to 106 °C.

`O=C1CCCC2=C1C(c1ccc(F)c(Cl)c1)C1=C(CCS1)N2` (stereo not drawn): the melting point was greater than 250 °C. The figure for `CC(C)(C)C(C(N)=O)c1cccc(Nc2ncnc3[nH]cc(C(=O)c4ccccc4)c23)c1` (stereo not drawn) is 288 to 290 °C. The figure for `c1coc(-c2nc3nsnc3nc2-c2ccncn2)c1` is 233 to 235 °C; for `Nc1ccccc1-c1ccc(CCCC(=O)O)cc1` it is 123 to 126 °C; for `CC(C)(C)OC(=O)NCC(Cl)c1cccs1` (stereo not drawn) it is 40 to 43 °C.

Regarding `O=C(O)c1c[nH]c2cc(C(F)(F)F)nn2c1=O`, the melting point was greater than 340 °C. The figure for `COc1ccc2[nH]cc(C3=C(c4c[nH]c5ccccc45)C(=O)NC3=O)c2c1` is 280 °C. The figure for `Cc1cccc2c(=O)[nH]c(C3CCN(CCO)C3)cc12` (single isomer, unassigned; (-)) is 137 to 139 °C. The figure for `Cn1cc(-c2ccc3nc(NC(=O)c4ccc(C(C)(C)C)nc4)cn3n2)cn1` is 251 to 252 °C; for `COc1cc2c(c3c1OC(C)(C)C3)C(c1ccc(N)cc1)=NC(C)(C)C2` it is 192 to 195 °C; for `Cc1ccc(COc2cccc(C(=O)Nc3ccc(CN4CCCCC4)cc3)c2)cc1` it is 153 to 155 °C. Consider `CC(=O)OC1CC2=CCC3C4CCC(C(C)CCCC(C)C)C4(C)CCC3C2(C)C(OC(C)=O)C1OC(C)=O` (stereo not drawn), for which the melting point lay within 109 to 110 °C. The figure for `CCNc1ccc(C#N)cc1[N+](=O)[O-]` is 130 to 132 °C. The figure for `CC1(C)Oc2ccc(C(=O)CO)cc2[C@H](NC(=O)c2ccc(F)c(Cl)c2)[C@@H]1O` is 200 °C. The compound `NS(=O)(=O)OCCOc1ccc(Br)cc1` gave a melting point of 134 to 137 °C.

On to `CS(=O)c1nc2cc(Oc3ccc(Cl)cc3Cl)c(Cl)cc2[nH]1` (stereo not drawn), for which the melting point lay in the range of 206 to 208 °C.

The compound `O=c1[nH]ncc2ccc(OCC3CO3)cc12` (stereo not drawn) displayed a melting point of 164 to 166 °C.

Take `CCn1c(=O)c(C)cc2cnc(S(C)=O)nc21` (stereo not drawn): the melting point was in the range of 148 to 150 °C. The figure for `CCN(CC)c1nc(N)nc(-c2ccc(Cl)c(Cl)c2)n1` is 201 to 204 °C; for `CCC1(CC)c2cc(-c3ccc(-c4ccc(O)cc4)cc3)ccc2-c2ccc(-c3ccc(-c4ccc(O)cc4)cc3)cc21` it is greater than 300 °C. The figure for `COC(=O)c1cc2cc(NS(=O)(=O)c3cccc(Cl)c3C)ccc2o1` is 139 to 140 °C; for `C#CCP(=O)(O)CCCN` it is 172 to 173 °C; for `CC1(C)N(Cc2ccc(C(=O)Cl)cc2)C(=O)C(=O)N1Cc1ccc(C(=O)Cl)cc1` it is 232 to 235 °C. `O=c1c(-c2cccc(Cl)c2)c[nH]n1-c1cccc(C(F)(F)F)c1` yielded a melting point of 190 to 192 °C. As for `COCOc1ccccc1-c1cc(-c2cccc(C(=O)OC)c2OC)c(C#N)c(NC(=O)c2ccco2)n1`, the melting point fell in the range of 140 to 141 °C. The figure for `O=C1CSCN1CCCCN1CCN(c2ccc(F)cc2)CC1` is 83 to 85 °C. `C=CCc1c(O)ccc(C(=O)OC)c1O` yielded a melting point of 65 to 66 °C. With `CCOc1ccc(C2(N)NC(Nc3ccc4c(c3)OCCO4)=NC=C2F)cc1` (stereo not drawn), the melting point lay within 164 to 167 °C. The compound `Nc1cc(C(F)(F)C(F)(F)OC(F)(F)C(F)(F)OC(F)(F)C(F)(F)c2ccc(O)c(N)c2)ccc1O` returned a melting point of 150 to 152 °C.

In the case of `COC(=O)c1ccc(N)cn1`, the melting point lay in the range of 147 to 150 °C. The figure for `COCCc1nc2c(N)nc3cc(-c4cncc(CO)c4)ccc3c2n1CC(C)C` is 202 to 204 °C. The figure for `CCCC(=O)N(C)Cc1c(-c2ccc(C)cc2)nc2n1-c1ccccc1CC2` is 110 to 112 °C.

In the case of `CC(C)C1=C(c2ccc(F)cc2)C(=O)C(C(C)C)=C(C(C)C)C1=O`, the melting point was 122 to 124 °C. The figure for `COc1ccc2nc3c(c(-c4ccc(C(F)(F)F)cc4)c2c1)CNC3=O` is 305 °C; for `O=C(O)c1ccccc1-n1c(-c2ccccc2)cc2c1-c1ccccc1CC2` it is 170 to 185 °C. The figure for `O=c1c(I)coc2ccccc12` is 95 to 97 °C; for `CCCCCCSc1[nH]c2cccc3c2c1CC1C3C=C(C)CN1C` (stereo not drawn) it is 199 to 201 °C. The figure for `O=C(NCc1ncc(O)c2ccccc12)c1ccccc1` is 130 to 131 °C.

In turn, `COc1cccc(-c2noc3cc(F)ccc23)c1` had a melting point of 68 to 69 °C. The figure for `c1ccc(-c2cc3nnc(-c4ccccc4)n3nc2OCc2cscn2)cc1` is 236 °C; for `S=C1CSc2ccccc2CN1` it is 215 to 219 °C. The figure for `NC(=O)C(c1ccccc1)(c1ccccc1)C1CCN(Cc2ccccc2)C1` (stereo not drawn) is 135 to 138 °C.

In turn, `CCOC(=O)C1=C(C)NC(N)=C(C(=O)OC(C)C)C1c1ccccc1C(F)(F)F` (stereo not drawn) gave a melting point of 106 °C. The figure for `Cc1ccc(S(=O)(=O)OCC2Cc3cc(C)c4c(c3O2)CCC4)cc1` (stereo not drawn) is 61 to 64 °C; for `CCN(CC)CCNc1nc(N)nc(-c2cc(Cl)ccc2Cl)n1` it is 141 to 142 °C.

In turn, `CC(C)NC(=O)N[C@@H](Cc1ccccc1)[C@H](O)[C@H](O)[C@H](Cc1ccccc1)NC(=O)NC(C)C` showed a melting point of 220 to 222 °C. The figure for `CCCCCCCCOc1ccc(C(=O)OC)c(O)c1` is 46 to 47 °C; for `ClCc1cc2cccnc2s1` it is 47 to 49 °C; for `CN(C=C(C#N)C#N)c1ccc(Cl)cn1` it is 136 to 137 °C. The figure for `N#CCOc1ccc2cc(CNC(=O)c3cc4ccccc4o3)ccc2c1` is 138 to 139 °C. Take `CN1Cn2ncc([N+](=O)[O-])c2-c2ccccc21`: the melting point is 172 to 173 °C. Compound `Fc1cc(N2CCN(C3CCN(c4cccc5cccnc45)CC3)CC2)c2ncccc2c1` showed a melting point of 211 °C. `CCN1C(=O)C(C(=O)Nc2cccc(C(=O)Nc3ccc(Br)cc3)c2)c2cc(C(=O)c3ccccc3)ccc21` (stereo not drawn) gave a melting point of 139 to 142 °C.
